Several values for one entry are separate records, joined by “and”; a condition that tells them apart may be missing. Equal values may be shown once.
test system: A2780-ADR cells; assay: MTT viability assay, reversal of MDR in P-gp overexpressing A2780-ADR cells; type: cell-based, human; details: 15 µM compound with or without 500 nM PTX, 48 h, MTT
Procedure: The chemotherapeutic sensitive DU145 human prostate cancer cells and the multidrug resistant sub-line, DU145-TXR, were generous gifts from Dr. Evan Keller (University of Michigan, Ann Arbor, MI). The MDR, P-gp overexpressing DU145-TXR cells were maintained under positive selection pressure by supplementing complete medium with 10 nM paclitaxel (Acros Organics, NJ). In addition to the aforementioned cell lines, the chemotherapeutic sensitive A2780 ovarian cancer cells (93112519, Sigma) and the multidrug resistant A2780-ADR (93112520, Sigma) were maintained in complete RPMI media consisting of RPMI-1640 with L-glutamine, 10% fetal bovine serum (FBS; Corning), 100 U/mL penicillin and 100 μg/mL streptomycin in a humidified incubator at 37 °C and 5% CO2. The MDR, P-gp overexpressing A2780-ADR cell line was maintained under positive selection pressure by supplementing complete medium with 100 nM doxorubicin (Fisher Scientific, NJ). The non-cancerous HFL1 (human lung fibroblast) cell line cell line was a generous gift from Dr. Robert Harrod (Southern Methodist University, Dallas, TX) and was maintained in complete F12K media consisting of F12K with 10% fetal bovine serum, 100 U/mL penicillin, and 100 µg/mL streptomycin (Gibco). Flasks and 96 well plates that were used with the non-cancerous line HFL1 were pre-treated with 0.1 mg/ml Collagen Type 1 (Gibco) and rinsed with PBS (Fisher).
Culture of the DU145, DU145-TXR, and HFL1 cell lines was performed as described in [8]. Culture of the A2780 and A2780-ADR cell lines was performed as described in [9]. MTT assays were performed as described in [8] with minor modifications. LC-MS/MS accumulation assays were performed as described in {Nanayakkara, 2018 #173} [9] with some modifications. […] The inhibitor concentration was lowered to 15 µM here, as the goal of the study was to identify compounds that were effective in reversing MDR at low concentrations, and to determine if the expanded virtual-assisted methods improved on our first-draft attempt. Compounds 56–98 were pre-screened using Resazurin cell viability assays: cells were incubated with 15 µM compound with or without 500 nM PTX for 48 hours, after which cell survival was assessed similar to [39]. Data represent the mean of two separate experiments, with n = 3 samples per experiment (n = 6 total) (S4 Table). The top performing compounds from this initial screen were re-tested with MTT viability assays against DU145-TXR cells, as described below.
MTT assays measure the reduction of yellow, water soluble 3-(4,5-dimethylthiazol-2-yl)-2,5-diphenyltetrazolium bromide (MTT) to blue, insoluble formazan crystals by cellular reductase processes in living cells. Cells were trypsinized from monolayers and seeded in complete medium in 96 well plates. Cancerous cell lines (DU145, DU145-TXR, A2780, A2780-ADR) were seeded at 3,000 cells per well in complete RPMI medium. The non-cancerous HFL1 line was seeded at 4,000 cells per well in complete F12K medium, in collagen-treated plates (Collagen Type 1, Gibco). Cells were incubated with experimental compounds for 48 hours at 37 °C and 5% CO2 in a humidified incubator. At 48 hours, MTT was added (20 µL/well of 5 mg/mL MTT in PBS) to each well. After incubation for 4 hours, the media was removed, and the formazan crystals were dissolved in 100 µL DMSO per well. Plates containing the semi-adherent A2780 or A2780-ADR lines were spun at 1400 rpm for 3 minutes prior to aspiration of media, and the addition of DMSO. Plates were shaken for 10 minutes at 500 rpm on an Orbital shaker (LabDoctor from MidSci, St Louis, MO). The absorbance was measured at 570 nm using a Bio-Tek Cytation 5 (Bio-Tek, Winooski, VT). The measured absorbance value was correlated with the number of metabolically active cells in that well, corrected for absorbance of media. […]

Compound | Reversal of MDR in A2780-ADR cells
O=S(=O)(Cc1nc2ccccc2n1CC(O)c1ccc(Cl)cc1)c1ccccc1 (centres unmarked) [Compound 97, OC(Cn1c(CS(=O)(=O)c2ccccc2)nc2ccccc12)c1ccc(Cl)cc1] | reversed MDR in A2780-ADR cells
O=C(c1nc(-c2ccc3cc[nH]c3c2)no1)N1CCN(c2nsc3ccccc23)CC1 [Compound 70, O=C(N1CCN(CC1)c1nsc2ccccc12)c1nc(no1)-c1ccc2cc[nH]c2c1] | reversed MDR in A2780-ADR cells
O=S(=O)(CCSc1nnc(-c2ccccc2)c2ccccc12)c1ccccc1 [Compound 96, O=S(=O)(CCSc1nnc(-c2ccccc2)c2ccccc12)c1ccccc1] | reversed MDR in A2780-ADR cells
O=C(NCc1cccc(F)c1)c1nnn2c1Sc1c(C(=O)NCc3cccc(F)c3)nnn1CC2 [Compound 122, Fc1cccc(CNC(=O)c2nnn3CCn4nnc(C(=O)NCc5cccc(F)c5)c4Sc23)c1] | reversed MDR in A2780-ADR cells
COc1cccc(N2CCN(c3ccc4nnc(CCC(=O)Nc5ccc(F)c(F)c5)n4n3)CC2)c1 [Compound 101, COc1cccc(c1)N1CCN(CC1)c1ccc2nnc(CCC(=O)Nc3ccc(F)c(F)c3)n2n1] | reversed MDR in A2780-ADR cells
Cc1ccc(-c2noc(-c3cn(Cc4ccc(NS(=O)(=O)c5ccccc5F)cc4)cn3)n2)cc1 [Compound 103, Cc1ccc(cc1)-c1noc(n1)-c1cn(Cc2ccc(NS(=O)(=O)c3ccccc3F)cc2)cn1] | reversed MDR in A2780-ADR cells

same assay, conditions: A2780-ADR cells, 15 µM compound + 500 nM PTX, mean of 12 samples

Compound | Mean % Survival
O=S(=O)(Cc1nc2ccccc2n1CC(O)c1ccc(Cl)cc1)c1ccccc1 (centres unmarked) [Compound 97, OC(Cn1c(CS(=O)(=O)c2ccccc2)nc2ccccc12)c1ccc(Cl)cc1] | 44.3%
O=C(c1nc(-c2ccc3cc[nH]c3c2)no1)N1CCN(c2nsc3ccccc23)CC1 [Compound 70, O=C(N1CCN(CC1)c1nsc2ccccc12)c1nc(no1)-c1ccc2cc[nH]c2c1] | 62.6%
O=S(=O)(CCSc1nnc(-c2ccccc2)c2ccccc12)c1ccccc1 [Compound 96, O=S(=O)(CCSc1nnc(-c2ccccc2)c2ccccc12)c1ccccc1] | 68.8%
O=C(NCc1cccc(F)c1)c1nnn2c1Sc1c(C(=O)NCc3cccc(F)c3)nnn1CC2 [Compound 122, Fc1cccc(CNC(=O)c2nnn3CCn4nnc(C(=O)NCc5cccc(F)c5)c4Sc23)c1] | 45.8%
COc1cccc(N2CCN(c3ccc4nnc(CCC(=O)Nc5ccc(F)c(F)c5)n4n3)CC2)c1 [Compound 101, COc1cccc(c1)N1CCN(CC1)c1ccc2nnc(CCC(=O)Nc3ccc(F)c(F)c3)n2n1] | 41.5%
Cc1ccc(-c2noc(-c3cn(Cc4ccc(NS(=O)(=O)c5ccccc5F)cc4)cn3)n2)cc1 [Compound 103, Cc1ccc(cc1)-c1noc(n1)-c1cn(Cc2ccc(NS(=O)(=O)c3ccccc3F)cc2)cn1] | 44.4%

same assay, conditions: A2780-ADR cells, 15 µM compound + 500 nM PTX, single samples (trials 1-3, samples 1-4)

Compound | % Survival (individual sample)
O=S(=O)(Cc1nc2ccccc2n1CC(O)c1ccc(Cl)cc1)c1ccccc1 (centres unmarked) [Compound 97, OC(Cn1c(CS(=O)(=O)c2ccccc2)nc2ccccc12)c1ccc(Cl)cc1] | 47% and 29%
O=C(c1nc(-c2ccc3cc[nH]c3c2)no1)N1CCN(c2nsc3ccccc23)CC1 [Compound 70, O=C(N1CCN(CC1)c1nsc2ccccc12)c1nc(no1)-c1ccc2cc[nH]c2c1] | 62% and 59% and 61%
O=S(=O)(CCSc1nnc(-c2ccccc2)c2ccccc12)c1ccccc1 [Compound 96, O=S(=O)(CCSc1nnc(-c2ccccc2)c2ccccc12)c1ccccc1] | 58%
O=C(NCc1cccc(F)c1)c1nnn2c1Sc1c(C(=O)NCc3cccc(F)c3)nnn1CC2 [Compound 122, Fc1cccc(CNC(=O)c2nnn3CCn4nnc(C(=O)NCc5cccc(F)c5)c4Sc23)c1] | 50% and 51% and 45%
COc1cccc(N2CCN(c3ccc4nnc(CCC(=O)Nc5ccc(F)c(F)c5)n4n3)CC2)c1 [Compound 101, COc1cccc(c1)N1CCN(CC1)c1ccc2nnc(CCC(=O)Nc3ccc(F)c(F)c3)n2n1] | 46%

same assay, conditions: A2780-ADR cells, 15 µM compound alone, single samples (trials 1-3, samples 1-4)

Compound | % Survival (individual sample)
O=C(c1nc(-c2ccc3cc[nH]c3c2)no1)N1CCN(c2nsc3ccccc23)CC1 [Compound 70, O=C(N1CCN(CC1)c1nsc2ccccc12)c1nc(no1)-c1ccc2cc[nH]c2c1] | 116%
O=S(=O)(CCSc1nnc(-c2ccccc2)c2ccccc12)c1ccccc1 [Compound 96, O=S(=O)(CCSc1nnc(-c2ccccc2)c2ccccc12)c1ccccc1] | 97%
O=C(NCc1cccc(F)c1)c1nnn2c1Sc1c(C(=O)NCc3cccc(F)c3)nnn1CC2 [Compound 122, Fc1cccc(CNC(=O)c2nnn3CCn4nnc(C(=O)NCc5cccc(F)c5)c4Sc23)c1] | 104% and 83%
COc1cccc(N2CCN(c3ccc4nnc(CCC(=O)Nc5ccc(F)c(F)c5)n4n3)CC2)c1 [Compound 101, COc1cccc(c1)N1CCN(CC1)c1ccc2nnc(CCC(=O)Nc3ccc(F)c(F)c3)n2n1] | 93%
Cc1ccc(-c2noc(-c3cn(Cc4ccc(NS(=O)(=O)c5ccccc5F)cc4)cn3)n2)cc1 [Compound 103, Cc1ccc(cc1)-c1noc(n1)-c1cn(Cc2ccc(NS(=O)(=O)c3ccccc3F)cc2)cn1] | 69%

same assay, conditions: Homo sapiens, A2780 ADR, A2780-ADR cells, 15 µM compound alone, mean of 12 samples; read-out: Mean % Survival

Compound | viability at 15 µM
O=S(=O)(Cc1nc2ccccc2n1CC(O)c1ccc(Cl)cc1)c1ccccc1 (centres unmarked) [Compound 97, OC(Cn1c(CS(=O)(=O)c2ccccc2)nc2ccccc12)c1ccc(Cl)cc1] | 92.5%
O=C(c1nc(-c2ccc3cc[nH]c3c2)no1)N1CCN(c2nsc3ccccc23)CC1 [Compound 70, O=C(N1CCN(CC1)c1nsc2ccccc12)c1nc(no1)-c1ccc2cc[nH]c2c1] | 114%
O=S(=O)(CCSc1nnc(-c2ccccc2)c2ccccc12)c1ccccc1 [Compound 96, O=S(=O)(CCSc1nnc(-c2ccccc2)c2ccccc12)c1ccccc1] | 105%
O=C(NCc1cccc(F)c1)c1nnn2c1Sc1c(C(=O)NCc3cccc(F)c3)nnn1CC2 [Compound 122, Fc1cccc(CNC(=O)c2nnn3CCn4nnc(C(=O)NCc5cccc(F)c5)c4Sc23)c1] | 89.7%
COc1cccc(N2CCN(c3ccc4nnc(CCC(=O)Nc5ccc(F)c(F)c5)n4n3)CC2)c1 [Compound 101, COc1cccc(c1)N1CCN(CC1)c1ccc2nnc(CCC(=O)Nc3ccc(F)c(F)c3)n2n1] | 88%
Cc1ccc(-c2noc(-c3cn(Cc4ccc(NS(=O)(=O)c5ccccc5F)cc4)cn3)n2)cc1 [Compound 103, Cc1ccc(cc1)-c1noc(n1)-c1cn(Cc2ccc(NS(=O)(=O)c3ccccc3F)cc2)cn1] | 70.4%

same assay, conditions: Homo sapiens, A2780 ADR, A2780-ADR cells, 15 µM compound alone, single samples (trials 1-3, samples 1-4); read-out: % Survival (individual sample)

Compound | viability at 15 µM
Cc1ccc(-c2noc(-c3cn(Cc4ccc(NS(=O)(=O)c5ccccc5F)cc4)cn3)n2)cc1 [Compound 103, Cc1ccc(cc1)-c1noc(n1)-c1cn(Cc2ccc(NS(=O)(=O)c3ccccc3F)cc2)cn1] | 67%

Reference: article PMC12349723, “Computationally accelerated identification of P-glycoprotein inhibitors” (PLOS One, 2025)
